Each structure is given as a SMILES string. Some results are limits rather than exact numbers.

This test deals with T1, human Werner helicase (WRN, Uniprot Q14191, amino acids 517-1235 with L1074F point mutation; WRN-BV08) (Homo sapiens, UniProt Q14191, L1074F).
T1 construct: Uniprot Q14191, amino acids 517-1235 with L1074F point mutation; 8xHis (C, cleaved yes); TEV cleavage site (ENLYFQG) (C, cleaved yes); made in house; host or cells: Sf9 insect cells (baculovirus, pFastBac)
T1 sequence (Q14191 with tags, fused parts or gaps L1074F): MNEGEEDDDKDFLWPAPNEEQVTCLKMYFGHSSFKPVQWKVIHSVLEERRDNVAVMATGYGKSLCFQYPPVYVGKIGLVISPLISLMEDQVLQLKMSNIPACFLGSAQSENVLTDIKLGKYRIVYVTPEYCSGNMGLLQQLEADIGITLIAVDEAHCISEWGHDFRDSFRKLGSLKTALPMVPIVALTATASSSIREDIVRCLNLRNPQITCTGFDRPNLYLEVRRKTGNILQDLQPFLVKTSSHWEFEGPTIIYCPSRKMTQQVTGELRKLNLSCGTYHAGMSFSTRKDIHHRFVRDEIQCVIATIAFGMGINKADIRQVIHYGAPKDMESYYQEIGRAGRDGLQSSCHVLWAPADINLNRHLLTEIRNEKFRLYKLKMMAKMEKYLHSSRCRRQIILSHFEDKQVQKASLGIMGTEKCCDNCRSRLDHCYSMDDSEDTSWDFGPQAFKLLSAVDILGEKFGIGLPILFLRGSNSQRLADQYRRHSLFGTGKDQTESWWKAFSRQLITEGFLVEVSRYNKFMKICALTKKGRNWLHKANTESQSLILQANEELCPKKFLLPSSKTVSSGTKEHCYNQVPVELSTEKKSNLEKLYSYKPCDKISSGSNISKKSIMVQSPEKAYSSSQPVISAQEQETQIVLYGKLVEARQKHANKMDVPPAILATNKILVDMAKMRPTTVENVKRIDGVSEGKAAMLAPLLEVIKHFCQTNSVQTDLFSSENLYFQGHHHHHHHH
Description: WRN (BV08) ADP-Glo assay. Format: biochemical. The settings on record: WRN-BV08 (aa 517-1235, L1074F); read-out: ADP-Glo_hWRN_IC50. The text has this: Example 2: WRN (BV08) ADP-Glo Assay Protocol
Bovine skin gelatin (BSG), dimethyl sulfoxide (DMSO), Pluronic F-127 and tris(2-carboxyethyl)phosphine hydrochloride solution (TCEP) were purchased from Sigma-Aldrich (St. Louis, MO) at the highest level of purity possible. Bicine buffer solution was purchased from Alfa Aesar (Tewksbury, MA) and compound NSC-617145 was purchased from Tocris (Minneapolis, MN). DNA duplex was synthesized at BGI (Shenzhen, China) and was composed of strand 1 with the sequence 5′-[…]-3′ (SEQ ID NO.: 1) and strand 2 with the sequence 5′-[…]-3′ (SEQ ID NO.: 2). DNA strands were annealed by heating to 95° C. for 5 minutes followed by slow cooling to room temperature. Compounds in 100% DMSO ([…]) were spotted into a 384-well white polystyrene Optiplate-384 (Perkin Elmer; Waltham, MA) assay plate using a LabCyte Echo 550 (Agilent; Santa Clara, CA). DMSO ([…]) was added to columns 12, rows A-H and column 24, rows I-P for the maximum signal control. Compound NSC-617145 ([…]) was added to columns 12, rows I-P and 24, rows A-H for the minimum signal control (100% inhibition). Compounds/DMSO were preincubated for 15 minutes at 25° C. with […] 2×WRN (BV08), prepared as described below, in assay buffer containing 20 mM Bicine (pH=7.5), 1 mM MgCl2, 10 mM KCl, 0.1% Pluronic F-127, 0.005% BSG, 1 mM TCEP. The reaction was initiated by the addition of […] 2× substrate mixture in assay buffer and incubated for 60 minutes at 25° C. The final concentrations of the assay components were 0.15 nM WRN, […], and 0.1 nM DNA duplex. The final DMSO concentration was 1% and the reference compound concentration (NSC-617145) used for the minimal signal control was […]. The reaction was stopped by the addition of the ADP-Glo Kit components (Promega; Madison, WI) as directed and the relative luminescence units (RLU) were read on an Envision 2104 (Perkin Elmer; Waltham, MA).
% Inhibition Calculation:
Where RLU=relative luminescence units, sample=signal in sample well, and MIN and MAX are the respective minimum and maximum signal controls.
Four-Parameter IC50 Fit Equation:
Where top and bottom are normally allowed to float but may be fixed at 100 or 0 respectively in a 3-parameter fit. Y is the % inhibition and X is the compound concentration.
Molecular Biology and virus production. The DNA encoding human Werner helicase (Uniprot Q14191, amino acids 517-1235 with L1074F point mutation) was generated with codon-optimization for […] expression and subcloned into the pFastBac vector with a TEV cleavable 8×His tag (SEQ ID NO: 5) (WRN—BV08). The baculovirus from the expression plasmid WRN—BV08 was generated from transfection and amplification following the manufacturer's instructions.
Sf9 cells grown in SF900II media were infected with 1:200 WRN—BV08 P2 virus and incubated for protein expression for 72 h at 27° C. The WRN protein was purified using the following protocol. The cell pellets were thawed and resuspended in buffer A (50 mM Tris, pH 7.5, 500 mM NaCl, 1 mM TCEP, 10% Glycerol) supplemented with 0.5% CHAPS, 1 mM PMSF, 1 μg/ml Leupeptin, 1 μg/ml Pepstatin, and the Pierce Universal Nuclease and cocktail tablet. Cleared lysates were loaded onto a Ni Sepharose™ excel column and washed with buffer A and bound protein was eluted with buffer A supplemented with 300 mM imidazole. The eluted protein was dialyzed against buffer A and digested by His-tagged TEV (1:5 ratio) overnight at 4° C. ZnCl2 was added into the sample at final 15 μM before loading onto a second Ni Sepharose™ excel column. Untagged WRN protein was eluted from the column with buffer A supplemented with 20 mM imidazole, dialyzed overnight into buffer B (50 mM Tris, pH 7.5, 1 mM TCEP, 10% Glycerol) supplemented with 150 mM NaCl and loaded onto a Heparin column. Proteins were eluted with a step gradient of buffer B supplemented with 150 mM, 200 mM, 300 mM and 500 mM NaCl. […]
For the compound `CCc1c(N2CCN(C(=O)c3nocc3O)[C@H]3CC[C@@H]32)c(=O)c2nn(C3=CCOCC3)nc2n1CC(=O)NC12CC(C(C)C)(C1)C2` [I-161, 2-[2-(3,6-dihydro-2H-pyran-4-yl)-5-ethyl-6-[(1S,6S)-5-(4-hydroxy-1,2-oxazole-3-carbonyl)-2,5-diazabicyclo[4.2.0]octan-2-yl]-7-oxo-2H,4H,7H-[1,2,3]triazolo[4,5-b]pyridin-4-yl]-N-[3-(propan-2-yl)bicyclo[1.1.1]pentan-1-yl]acetamide], the IC50 is ≤ 5 nM. For `CCc1c(N2CCN(C(=O)c3c(OC)ncc(C)c3O)CC2)c(=O)c2nn(-c3ccnc(OC)c3)nc2n1CC(=O)NC12CC(N3CCCC3)(C1)C2` [I-126, 2-{5-ethyl-6-[4-(4-hydroxy-2-methoxy-5-methylpyridine-3-carbonyl)piperazin-1-yl]-2-(2-methoxypyridin-4-yl)-7-oxo-2H,4H,7H-[1,2,3]triazolo[4,5-b]pyridin-4-yl}-N-[3-(pyrrolidin-1-yl)bicyclo[1.1.1]pentan-1-yl]acetamide], the IC50 is > 500 nM. For `CCc1c(N2CCN(C(=O)c3ncnc(C)c3O)[C@H]3CC[C@@H]32)c(=O)c2nn(C3=CCN(CC(F)F)CC3)nc2n1CC(=O)NC12CC(C3CC3)(C1)C2` [I-174, N-{3-cyclopropylbicyclo[1.1.1]pentan-1-yl}-2-{2-[1-(2,2-difluoroethyl)-1,2,3,6-tetrahydropyridin-4-yl]-5-ethyl-6-[(1S,6S)-5-(5-hydroxy-6-methylpyrimidine-4-carbonyl)-2,5-diazabicyclo[4.2.0]octan-2-yl]-7-oxo-2H,4H,7H-[1,2,3]triazolo[4,5-b]pyridin-4-yl}acetamide], the IC50 was 5 to 50 nM. Take `CCc1c(N2CCN(C(=O)c3c(O)ccc4ncoc34)[C@H]3CC[C@@H]32)c(=O)c2nn(-c3ccnc(OC)c3)nc2n1CC(=O)NC12CC(C(C)C)(C1)C2` [I-136, 2-{5-ethyl-6-[(1S,6S)-5-(6-hydroxy-1,3-benzoxazole-7-carbonyl)-2,5-diazabicyclo[4.2.0]octan-2-yl]-2-(2-methoxypyridin-4-yl)-7-oxo-2H,4H,7H-[1,2,3]triazolo[4,5-b]pyridin-4-yl}-N-[3-(propan-2-yl)bicyclo[1.1.1]pentan-1-yl]acetamide]: the IC50 was ≤ 5 nM.

For the compound `CCc1c(N2CCN(C(=O)c3ncnc(C)c3O)[C@H]3CCC[C@@H]32)c(=O)c2nn(C3=CCOCC3)nc2n1CC(=O)NC12CC(C3CC3)(C1)C2` [I-60, 2-{6-[(4aS,7aS)-4-(5-hydroxy-6-methylpyrimidine-4-carbonyl)-octahydro-1H-cyclopenta[b]pyrazin-1-yl]-2-(3,6-dihydro-2H-pyran-4-yl)-5-ethyl-7-oxo-2H,4H,7H-[1,2,3]triazolo[4,5-b]pyridin-4-yl}-N-{3-cyclopropylbicyclo[1.1.1]pentan-1-yl}acetamide], the IC50 fell in the range of 5 to 50 nM. With `CCc1c(N2CCN(C(=O)c3c(F)cnc(OC)c3O)[C@H]3CC[C@@H]32)c(=O)c2nn(C3=CCOCC3)nc2n1CC(=O)NC12CC(C3CC3)(C1)C2` [I-172, N-{3-cyclopropylbicyclo[1.1.1]pentan-1-yl}-2-[2-(3,6-dihydro-2H-pyran-4-yl)-5-ethyl-6-[(1S,6S)-5-(5-fluoro-3-hydroxy-2-methoxypyridine-4-carbonyl)-2,5-diazabicyclo[4.2.0]octan-2-yl]-7-oxo-2H,4H,7H-[1,2,3]triazolo[4,5-b]pyridin-4-yl]acetamide], the IC50 is 5 to 50 nM. As to `CCc1c(N2CCN(C(=O)c3ncnc(C)c3O)[C@H]3CC[C@@H]32)c(=O)c2nn(C3=CCOC(C)C3)nc2n1CC(=O)NC12CC(C3CC3)(C1)C2` (stereo partly drawn) [I-162, N-{3-cyclopropylbicyclo[1.1.1]pentan-1-yl}-2-{5-ethyl-6-[(1S,6S)-5-(5-hydroxy-6-methylpyrimidine-4-carbonyl)-2,5-diazabicyclo[4.2.0]octan-2-yl]-2-(2-methyl-3,6-dihydro-2H-pyran-4-yl)-7-oxo-2H,4H,7H-[1,2,3]triazolo[4,5-b]pyridin-4-yl}acetamide], the IC50 is 5 to 50 nM. For `CCc1c(N2CCN(C(=O)c3ncc4c(c3O)CCO4)CC2)c(=O)n2nc(C3=CCOCC3)nc2n1CC(=O)NC12CC(F)(C1)C2` [I-6, 2-(2-(3,6-dihydro-2H-pyran-4-yl)-5-ethyl-6-(4-(4-hydroxy-2,3-dihydrofuro[2,3-c]pyridine-5-carbonyl)piperazin-1-yl)-7-oxo-[1,2,4]triazolo[1,5-a]pyrimidin-4(7H)-yl)-N-(3-fluorobicyclo[1.1.1]pentan-1-yl)acetamide] the value was > 500 nM.

Consider `CCc1c(N2CCN(C(=O)c3ncnc(C)c3O)[C@H]3CC[C@@H]32)c(=O)c2nn(-c3ccnc(C(F)F)c3)nc2n1CC(=O)NC12CC(C3CC3)(C1)C2` [I-171, N-{3-cyclopropylbicyclo[1.1.1]pentan-1-yl}-2-{2-[2-(difluoromethyl)pyridin-4-yl]-5-ethyl-6-[(1S,6S)-5-(5-hydroxy-6-methylpyrimidine-4-carbonyl)-2,5-diazabicyclo[4.2.0]octan-2-yl]-7-oxo-2H,4H,7H-[1,2,3]triazolo[4,5-b]pyridin-4-yl}acetamide], for which the IC50 is 5 to 50 nM. As for `CCc1c(N2CCN(C(=O)c3ncnc(C)c3O)[C@H]3CC[C@@H]32)c(=O)c2nn(-c3ccc(OC)cc3)nc2n1CC(=O)NC12CC(C(C)C)(C1)C2` [I-145, 2-{5-ethyl-6-[(1S,6S)-5-(5-hydroxy-6-methylpyrimidine-4-carbonyl)-2,5-diazabicyclo[4.2.0]octan-2-yl]-2-(4-methoxyphenyl)-7-oxo-2H,4H,7H-[1,2,3]triazolo[4,5-b]pyridin-4-yl}-N-[3-(propan-2-yl)bicyclo[1.1.1]pentan-1-yl]acetamide], the figure is ≤ 5 nM; as for `CCc1c(N2CCN(C(=O)c3ncnc(C)c3O)CC2)c(=O)c2nn(C3=CCOCC3)nc2n1CC(=O)NC12CC(C(C)C)(C1)C2` [I-59, 2-[2-(3,6-dihydro-2H-pyran-4-yl)-5-ethyl-6-[4-(5-hydroxy-6-methylpyrimidine-4-carbonyl)piperazin-1-yl]-7-oxo-2H,4H,7H-[1,2,3]triazolo[4,5-b]pyridin-4-yl]-N-[3-(propan-2-yl)bicyclo[1.1.1]pentan-1-yl]acetamide], 5 to 50 nM. As to `CCc1c(N2CCN(C(=O)c3ncc4c(c3O)CCO4)CC2)c(=O)n2nc(C3=CCOCC3)nc2n1CC(=O)NC12CC(C)(C1)C2` [I-5, 2-(2-(3,6-dihydro-2H-pyran-4-yl)-5-ethyl-6-(4-(4-hydroxy-2,3-dihydrofuro[2,3-c]pyridine-5-carbonyl)piperazin-1-yl)-7-oxo-[1,2,4]triazolo[1,5-a]pyrimidin-4(7H)-yl)-N-(3-methylbicyclo[1.1.1]pentan-1-yl)acetamide], the IC50 was in the range of 50 to 100 nM. Take `CCc1c(N2CCN(C(=O)c3ncnc(C)c3O)[C@H]3CC[C@@H]32)c(=O)c2nn(-c3ccn(C4CC4)n3)nc2n1CC(=O)NC12CC(C(C)C)(C1)C2` [I-78, 2-[2-(1-cyclopropyl-1H-pyrazol-3-yl)-5-ethyl-6-[(1S,6S)-5-(5-hydroxy-6-methylpyrimidine-4-carbonyl)-2,5-diazabicyclo[4.2.0]octan-2-yl]-7-oxo-2H,4H,7H-[1,2,3]triazolo[4,5-b]pyridin-4-yl]-N-[3-(propan-2-yl)bicyclo[1.1.1]pentan-1-yl]acetamide]: the IC50 was 5 to 50 nM.

Values taken from patent US20250206738A1, “WRN INHIBITORS” (Nimbus Wadjet, Inc., priority 2023, published 2025).
